One substance from patent publication US20050208496A1, “Methods of testing for bronchial asthma or chronic obstructive pulmonary disease” (Genox Research, Inc., priority 2002, published 2005) can be followed below.

In this assay the test system is pendrin gene. In words: Quantitative PCR (ABI 7700) of the pendrin gene in epithelial cells cultured by the AI or IMM method. Type of assay: cell-based, human. The note with it: respiratory tract epithelial cells. An excerpt: Quantitative PCR assays were further performed with ABI 7700 using two batches of epithelial cells cultured respectively by the AI method and the IMM method described in Example 1 to quantitatively determine the expression level of the pendrin gene selected in Example 5. The primers and TaqMan probe used in the assays with ABI 7700 were designed based on the information on the sequence of the pendrin gene utilizing Primer Express (PE Biosystems). The 5′ and 3′ ends of the TaqMan probe were labeled with FAM (6-carboxy-fluorescein) and TAMRA (6-carboxy-N,N,N′,N′-tetramethylrhodamine), respectively. The sequences of oligonucleotides of the forward primer (F), reverse primer (R), and TaqMan probe (TP) for the pendrin gene are shown below. The GenBank accession number corresponding to the nucleotide sequence of each marker gene is shown in parenthesis after the name.
Total RNA extracted by the aforementioned method was treated with DNase (Nippon Gene). […]
Additionally, to correct the differences of cDNA concentration in the sample, a similar quantitative analysis was performed for β-actin gene and glyceraldehyde-3-phosphate dehydrogenase (GAPDH) gene as internal standards for correction. By correcting based on the number of copies of these genes, the number of copies of the genes of interest was calculated. […]

Turning to “IL-13: human IL-13 (Peprotech, Inc.) added to the medium at 50 ng/mL to stimulate respiratory epithelial cells”, the “pendrin gene expression level, elevation as a result of IL-13 stimulation (quantitative PCR)” value was “hundred folds or more”.
